Test results from patent US10189803B2, “Synthesis of therapeutic and diagnostic drugs centered on regioselective and stereoselective ring opening of aziridinium ions” (ILLINOIS INSTITUTE OF TECHNOLOGY, priority 2008, dated 2019).
Values joined by “and” are separate entries in the source; they are usually repeats but may differ in a detail not shown here. Equal entries are not always repeated.

Key:
[1] = In vitro serum stability of radiolabeled C-NE3TA complexes in human serum (SE-HPLC); format: in vitro ADME; settings: 37° C., up to 11 days
Protocol: C-NE3TA was radiolabeled with ^90Y, ^177Lu, ^203Pb, ^205/6Bi, or ^153Gd as previously described (Chong, H. S.; Milenic, D. E.; Garmestani, K.; Brady, E. D.; Arora, H.; Pfiester, C.; Brechbiel, M. W., Nucl. Med. Biol. 2006, 33, 459-67; Chong H S, Garmestani K, Bryant Jr., L H Milenic D E, Overstreet T, Birch N, Le N, Brady E D, Brechbiel M W. J. Med. Chem. 2006, 49, 2055-2062). In vitro serum stability of the radiolabeled complexes purified via ion-exchange chromatography was performed to determine if C-NE3TA labeled with the radioisotopes remained stable without transchelation or loss of their respective radionuclide in human serum. This was assessed by measuring the transfer of radionuclide from the complex to serum proteins over the course of 11 days.
In vitro stability of the radiolabeled metal complexes. The stability of the purified radiolabeled complexes was evaluated in human serum (Gemini Bioproducts, Woodland, Calif.) for up to 11 days. The serum stability of the radiolabeled complexes was assessed by measuring the transfer of the radionuclide from each complex to serum proteins using SE-HPLC methods. Radiolabeled complexes were diluted to an appropriate volume that allowed for preparation of multiple samples containing 5-10 μCi and were filter-sterilized using a Millex-GV 0.22 μm filter. This stock solution was then mixed with 1400 μL of sterile normal human serum. Aliquots (200 μL) were drawn and separated into individual tubes for subsequent analysis using aseptic technique. The samples were incubated at 37° C., and at designated intervals, subjected to analysis by SE-HPLC. Samples were loaded onto the HPLC and eluted with PBS, pH 7.4 isocratically at 1 mL/min. […] Radioactivity associated with a transfer to serum proteins generally appeared at ˜6 min.

[2] = In vivo biodistribution of radiolabeled complexes in normal athymic mice; settings: non-tumor bearing mice, ± SD
Protocol: The in vivo stability of the radiolabeled complexes was evaluated by performing biodistribution studies in normal athymic mice. Selected organs and the blood were harvested at five time points, 0.5, 1, 4, 8, and 24 h post-injection and the radioactivity measured. […] C-NE3TA radiolabeled with ^153Gd was almost completely cleared from blood, liver, spleen, lung, heart, and femur in less than 4 hours, and radioactivity level in the kidney was 0.16%±0.11 ID/g at 24 hour post-injection (Table 9).
In vivo biodistribution studies oh the radiolabeled metal complexes. Female athymic mice were obtained from Charles River Laboratories (Wilmington, Mass.) at 4-6 weeks of age. The pH of the radiolabeled ligands was adjusted to pH ˜7.0 with 0.5 M sodium bicarbonate (pH 10.5) and diluted in phosphate-buffered saline. The radiolabeled ligands ([…] for ^86Y, ^205/6Bi, ^177Lu, and ^203Pb) were administered to the mice in 200 μL of solution via tail vein injection. The mice (5 per data point) were sacrificed by exsanguination at 0.5, 1, 4, 8, and 24 h. Blood and the major organs were harvested, wet-weighed and the radioactivity measured in a γ-scintillation counter (1480 Wizard, Perkin Elmer). The percent injected dose per gram (% ID/g) was determined for each tissue. The values presented are the mean and standard deviation for each tissue.

SMILES | stability in human serum (in words) [1] | percent injected dose per gram, Blood ([2]; 0.50 hr) [% ID/g] | percent injected dose per gram, Femur ([2]; 0.50 hr) [% ID/g] | percent injected dose per gram, Heart ([2]; 0.50 hr) [% ID/g] | percent injected dose per gram, Kidney ([2]; 0.50 hr) [% ID/g] | percent injected dose per gram, Liver ([2]; 0.50 hr) [% ID/g] | percent injected dose per gram, Lung ([2]; 0.50 hr) [% ID/g] | percent injected dose per gram, Spleen ([2]; 0.50 hr) [% ID/g] | percent injected dose per gram, Blood ([2]; 1.00 hr) [% ID/g] | percent injected dose per gram, Femur ([2]; 1.00 hr) [% ID/g] | percent injected dose per gram, Heart ([2]; 1.00 hr) [% ID/g] | percent injected dose per gram, Kidney ([2]; 1.00 hr) [% ID/g] | percent injected dose per gram, Liver ([2]; 1.00 hr) [% ID/g] | percent injected dose per gram, Lung ([2]; 1.00 hr) [% ID/g] | percent injected dose per gram, Spleen ([2]; 1.00 hr) [% ID/g] | percent injected dose per gram, Blood ([2]; 4.00 hr) [% ID/g] | percent injected dose per gram, Femur ([2]; 4.00 hr) [% ID/g] | percent injected dose per gram, Heart ([2]; 4.00 hr) [% ID/g] | percent injected dose per gram, Kidney ([2]; 4.00 hr) [% ID/g] | percent injected dose per gram, Liver ([2]; 4.00 hr) [% ID/g] | other results
O=C(O)CNC(Cc1ccc([N+](=O)[O-])cc1)CN1CCN(CC(=O)O)CCN(CC(=O)O)CC1.[153Gd] (stereo not drawn) [^153Gd-C-NE3TA] | no measurable loss of radioactivity | 1.41 ± 0.57 | 0.43 ± 0.14 | 0.43 ± 0.16 | 4.28 ± 1.33 | 1.74 ± 0.69 | 0.91 ± 0.28 | 0.50 ± 0.37 | 0.20 ± 0.08 | 1.30 ± 0.58 | 0.14 ± 0.06 | 1.13 ± 0.12 | 0.58 ± 0.22 | 0.32 ± 0.09 | 0.24 ± 0.05 | 0.00 ± 0.00 | 0.02 ± 0.01 | 0.01 ± 0.00 | 0.52 ± 0.04 | 0.03 ± 0.01 | percent injected dose per gram, Lung ([2]; 4.00 hr): 0.03 ± 0.00 % ID/g; percent injected dose per gram, Spleen ([2]; 4.00 hr): 0.02 ± 0.00 % ID/g; percent injected dose per gram, Blood ([2]; 8.00 hr): 0.00 ± 0.00 % ID/g; percent injected dose per gram, Femur ([2]; 8.00 hr): 0.02 ± 0.00 % ID/g; percent injected dose per gram, Heart ([2]; 8.00 hr): 0.01 ± 0.00 % ID/g; percent injected dose per gram, Kidney ([2]; 8.00 hr): 0.38 ± 0.06 % ID/g; percent injected dose per gram, Liver ([2]; 8.00 hr): 0.02 ± 0.00 % ID/g; percent injected dose per gram, Lung ([2]; 8.00 hr): 0.02 ± 0.00 % ID/g; percent injected dose per gram, Spleen ([2]; 8.00 hr): 0.02 ± 0.00 % ID/g; percent injected dose per gram, Blood ([2]; 24.00 hr): 0.00 ± 0.00 % ID/g; percent injected dose per gram, Femur ([2]; 24.00 hr): 0.01 ± 0.00 % ID/g; percent injected dose per gram, Heart ([2]; 24.00 hr): 0.13 ± 0.27 % ID/g; percent injected dose per gram, Kidney ([2]; 24.00 hr): 0.16 % ID/g and 0.16 ± 0.11 % ID/g; percent injected dose per gram, Liver ([2]; 24.00 hr): 0.02 ± 0.01 % ID/g; percent injected dose per gram, Lung ([2]; 24.00 hr): 0.01 ± 0.01 % ID/g; percent injected dose per gram, Spleen ([2]; 24.00 hr): 0.01 ± 0.01 % ID/g
O=C(O)CNC(Cc1ccc([N+](=O)[O-])cc1)CN1CCN(CC(=O)O)CCN(CC(=O)O)CC1.[177Lu] (stereo not drawn) [^177Lu-C-NE3TA] | no measurable loss of radioactivity | 0.93 ± 0.30 | 1.06 ± 1.35 | 0.37 ± 0.08 | 2.78 ± 0.99 | 0.82 ± 0.27 | 0.87 ± 0.22 | 0.33 ± 0.08 | 0.31 ± 0.04 | 0.39 ± 0.13 | 0.19 ± 0.09 | 1.57 ± 0.52 | 0.69 ± 0.20 | 0.42 ± 0.16 | 0.28 ± 0.20 | 0.12 ± 0.02 | 0.36 ± 0.11 | 0.08 ± 0.02 | 1.34 ± 0.09 | 0.50 ± 0.02 | percent injected dose per gram, Lung ([2]; 4.00 hr): 0.17 ± 0.03 % ID/g; percent injected dose per gram, Spleen ([2]; 4.00 hr): 0.19 ± 0.07 % ID/g; percent injected dose per gram, Blood ([2]; 8.00 hr): 0.06 ± 0.01 % ID/g; percent injected dose per gram, Femur ([2]; 8.00 hr): 0.28 ± 0.15 % ID/g; percent injected dose per gram, Heart ([2]; 8.00 hr): 0.10 ± 0.11 % ID/g; percent injected dose per gram, Kidney ([2]; 8.00 hr): 1.16 ± 0.19 % ID/g; percent injected dose per gram, Liver ([2]; 8.00 hr): 0.36 ± 0.05 % ID/g; percent injected dose per gram, Lung ([2]; 8.00 hr): 0.15 ± 0.03 % ID/g; percent injected dose per gram, Spleen ([2]; 8.00 hr): 0.13 ± 0.02 % ID/g; percent injected dose per gram, Blood ([2]; 24.00 hr): 0.01 ± 0.00 % ID/g; percent injected dose per gram, Femur ([2]; 24.00 hr): 0.38 ± 0.10 % ID/g; percent injected dose per gram, Heart ([2]; 24.00 hr): 0.02 ± 0.01 % ID/g; percent injected dose per gram, Kidney ([2]; 24.00 hr): 0.84 ± 0.08 % ID/g; percent injected dose per gram, Liver ([2]; 24.00 hr): 0.31 ± 0.04 % ID/g; percent injected dose per gram, Lung ([2]; 24.00 hr): 0.07 ± 0.03 % ID/g; percent injected dose per gram, Spleen ([2]; 24.00 hr): 0.12 ± 0.05 % ID/g
